Laboratory results: ChEMBL document CHEMBL3046449, “Selective Herbicidal Activities of Ethyl 5-(4, 6-Dimethoxypyrimidin-2-ylcarbamoylsulfamoyl)-1-methylpyrazole-4-carboxylate and Its Related Compounds” (J Pestic Sci, 1990)

How the values were obtained:
[1] = test system: Oryza sativa; test: Effect on Oryza sativa (rice) plant growth in transplanted Oryza sativa field assessed as number of tillers at 30 g/ha treated after 10 days transplanting; format: organism-based; conditions: in vivo, other, 240 h
[2] = test system: Pontederia vaginalis; test: Herbicidal activity against Monochoria vaginalis assessed as weed control in transplanted rice field at 20 g/ha treated after 7 days transplanting; format: functional
[3] = test system: Oryza sativa; test: Effect on Oryza sativa (rice) plant growth in transplanted Oryza sativa field assessed as plant height at 30 g/ha treated after 7 days transplanting; format: organism-based; conditions: in vivo, other, 168 h
[4] = test system: Echinochloa crus-galli; test: Herbicidal activity against Echinochloa crus-galli (barnyard grass) assessed as growth inhibition measured after 2 days by preemergence activity assay; format: functional
[5] = test system: Echinochloa crus-galli; test: Herbicidal activity against Echinochloa crus-galli (barnyard grass) assessed as weed control in transplanted rice field at 30 g/ha treated after 10 days transplanting; format: functional
[6] = test system: Sagittaria pygmaea; test: Herbicidal activity against Sagittaria pygmaea assessed as weed control in transplanted rice field at 30 g/ha treated after 3 days transplanting; format: functional
[7] = test system: Schoenoplectiella juncoides; test: Herbicidal activity against Schoenoplectiella juncoides assessed as weed control in transplanted rice field at 20 g/ha treated after 3 days transplanting; format: functional
[8] = test system: Sagittaria pygmaea; test: Herbicidal activity against Sagittaria pygmaea assessed as weed control in transplanted rice field at 30 g/ha treated after 15 days transplanting; format: functional
[9] = test system: Pontederia vaginalis; test: Herbicidal activity against Monochoria vaginalis assessed as growth inhibition in paddy condition under greenhouse at 5 g/ha measured after 18 days by preemergence activity assay; format: functional; conditions: pre-emergence, 432 h, read-out: GI
[10] = test system: Sagittaria pygmaea; test: Herbicidal activity against Sagittaria pygmaea assessed as weed control in transplanted rice field at 30 g/ha treated after 10 days transplanting; format: functional
[11] = test system: Sagittaria pygmaea; test: Herbicidal activity against two-leaf stage Sagittaria pygmaea assessed as growth inhibition treated 7 to 15 days after planting measured by post-emergence activity assay; format: functional
[12] = test system: Pontederia vaginalis; test: Herbicidal activity against Monochoria vaginalis assessed as weed control in transplanted rice field at 30 g/ha treated after 10 days transplanting; format: functional
[13] = test system: Cyperus serotinus; test: Herbicidal activity against Cyperus serotinus assessed as weed control in transplanted rice field at 30 g/ha treated after 3 days transplanting; format: functional
[14] = test system: Schoenoplectiella juncoides; test: Herbicidal activity against Schoenoplectiella juncoides assessed as weed control in transplanted rice field at 30 g/ha treated after 3 days transplanting; format: functional
[15] = test system: unidentified; test: Herbicidal activity against broadleaf weed assessed as weed control in transplanted rice field at 30 g/ha treated after 10 days transplanting; format: functional
[16] = test system: Schoenoplectiella juncoides; test: Herbicidal activity against Schoenoplectiella juncoides assessed as weed control in transplanted rice field at 30 g/ha treated after 7 days transplanting; format: functional
[17] = test system: unidentified; test: Herbicidal activity against broadleaf weed assessed as weed control in transplanted rice field at 20 g/ha treated after 7 days transplanting; format: functional
[18] = test system: Sagittaria pygmaea; test: Herbicidal activity against Sagittaria pygmaea assessed as growth inhibition measured after 2 days by pre-emergence activity assay; format: functional
[19] = test system: Echinochloa crus-galli; test: Herbicidal activity against 1.5 leaf stage Echinochloa crus-galli (barnyard grass) assessed as growth inhibition treated 7 to 15 days after planting measured by postemergence activity assay; format: functional
[20] = test system: Sagittaria pygmaea; test: Herbicidal activity against Sagittaria pygmaea assessed as weed control in transplanted rice field at 20 g/ha treated after 7 days transplanting; format: functional
[21] = test system: Cyperus serotinus; test: Herbicidal activity against Cyperus serotinus assessed as weed control in transplanted rice field at 30 g/ha treated after 10 days transplanting; format: functional
[22] = Herbicidal activity against broadleaf weed assessed as weed control in transplanted rice field at 20 g/ha treated after 3 days transplanting; format: functional

With `CCOC(=O)c1cnn(C)c1S(=O)(=O)NC(=O)Nc1nc(OC)cc(OC)n1` [PYRAZOSULFURON ETHYL] the Activity [1] was 101%, the Activity [2] was 100% and the Activity [3] was 104%. For the same compound, the I75 [4] was 13 gAi/ha, the Activity [5] was 90% and the Activity [6] was 97%. For the same compound, the Activity [7] was 97%, the Activity [8] was 95% and the inhibition of growth at 5 g/ha [9] was over 90%. The Activity [10] was 95%, the I75 [11] was 2.7 gAi/ha and the Activity [12] was 93%. It also gave an Activity [13] of 100%, an Activity [14] of 100% and an Activity [15] of 100%. It also gave an Activity [16] of 100%, an Activity [17] of 100% and an I75 [18] of 1.9 gAi/ha. The I75 [19] was 18 gAi/ha, the Activity [20] was 98% and the Activity [21] was 97%. The Activity [22] was 100%.
